Laboratory results from patent US8637526B2, “Pyrazolopyrimidine JAK inhibitor compounds and methods” (Genentech, Inc., priority 2008, dated 2014).
Like-named read-outs stand apart in the source and are kept apart here.

Experiments:
TF-1 cells = assay: IL-6-stimulated STAT3 phosphorylation in TF-1 cells (JAK1-dependent signaling, MSD); format: cell-based; details: Homo sapiens, read-out: IL6-pSTAT3 TF1 EC50
Method: The activities of compounds were determined in cell-based assays that are designed to measure JAK1 or JAK2-dependent signaling. Compounds were serially diluted in DMSO and incubated with TF-1 cells (American Type Culture Collection (ATCC); Manassas, Va.) in 384-well microtiter plates in OptiMEM medium without phenol red, 1% Charcoal/Dextran stripped FBS, 0.1 mM NEAA, 1 mM sodium pyruvate (Invitrogen Corp.; Carlsbad, Calif.) at a final cell density of 100,000 cells per well and a final DMSO concentration of 0.2%. Human recombinant IL-6 (R&D systems; Minneapolis, Minn.) or EPO (Invitrogen Corp.; Carlsbad, Calif.) was then added at a final concentration of 30 ng/mL or 10 Units/mL, respectively, to the microtiter plates containing the TF-1 cells and compound and the plates were incubated for 30 min at 37° C. Compound-mediated effects on STAT3 or STATS phosphorylation were then measured in the lysates of cells incubated in the presence of IL-6 or EPO, respectively, using the Meso Scale Discovery (MSD) technology (Gaithersburg, Md.) according to the manufacturer's protocol and EC50 values were determined.

human JAK2 kinase domain = human JAK2 kinase domain (Homo sapiens (Human), UniProt O60674); assay: JAK2 Inhibition Assay Protocol (Caliper LabChip peptide phosphorylation); format: biochemical; details: enzymatic activity, 25 uM ATP; read-out: JAK2i Ki
Source text: Saltzman et al., Biochem. Biophys. Res. Commun. 246:627-633 (2004). The catalytically active kinase domain of human JAK2 was purified from extracts of SF9 insect cells infected with a recombinant baculovirus expression vector encoding the human JAK2 kinase domain (amino acid residues D812-G1132 according to the numbering of GenBank sequence accession number NP_004963.1). The activity of the JAK2 kinase domain can be measured by a number of direct and indirect methods, including quantification of phosphorylation of peptide substrates derived from the human JAK3 protein Saltzman et al., Biochem. Biophys. Res. Commun. 246:627-633 (2004). The activity of the JAK2 kinase domain was measured in vitro by monitoring phosphorylation of JAK3 derived peptides using the Caliper LabChip technology (see Examples).
The activity of the isolated kinase domain of JAK2 can be measured by monitoring phosphorylation of peptide substrates derived from the human JAK3 kinase in vitro Saltzman et al., Biochem. Biophys. Res. Commun. 246:627-633 (2004). The human JAK2 kinase domain was expressed with an N-terminal His6 tag followed by a thrombin cleavage site using the baculovirus expression vector system. The kinase domain expressed is defined as amino acid residues D812-G1132 according to the numbering of GenBank sequence accession number NP_004963.1. Recombinant DNA transfer vectors were co-transfected with BakPAK6 linearized DNA (Clontech Laboratories, Inc., Mountain View, Calif.) and the resulting viral stocks were amplified using standard protocols. Protein was produced in SF9 cells grown to a cell density of 2E6/mL in ESF921 media (Expression Systems LLC, Woodland, Calif.) and infected at an M.O.I. of 1 in Wave bioreactors. The cells were harvested 72 hours post infection, and active JAK2 enzyme was purified from the lysates of infected cells by Ni-NTA (Qiagen, Valencia, Calif.) column chromatography followed by Sephacryl S-200 (GE Healthcare, Piscataway, N.J.) column chromatography.
The catalytically active kinase domain of human JAK1, JAK2, JAK3 or TYK2 was purified from extracts of SF9 insect cells infected with a recombinant baculovirus expression vector encoding the human JAK1, JAK2, JAK3 or TYK2 kinase domains (JAK1 amino acid residues N852-D1154 according to the numbering of GenBank sequence accession number P23458, JAK2 amino acid residues D812-G1132 according to the numbering of GenBank sequence accession number NP_004963.1; JAK3 amino acid residues S783-S1124 according to the numbering of GenBank sequence accession number P52333, and TYK2 amino acid residues N873-C1187 according to the numbering of GenBank sequence accession number P29597). The activity of the JAK1, JAK2, JAK3 or TYK2 kinase domains can be measured by a number of direct and indirect methods, including quantification of phosphorylation of peptide substrates derived from the human JAK3 protein (Saltzman et al., Biochem. Biophys. Res. Commun. 246:627-633 (2004)). The activity of the JAK1, JAK2, JAK3 or TYK2 kinase domains was measured in vitro by monitoring phosphorylation of JAK3 derived peptides using the Caliper LabChip technology.
The activity of the isolated JAK2 kinase domain was measured by monitoring phosphorylation of a peptide derived from JAK3 ([…] fluorescently labeled on the N-terminus with 5-carboxyfluorescein using the Caliper LabChip technology (Caliper Life Sciences, Hopkinton, Mass.). […] Reactions were incubated at 22° C. in 384-well polypropylene microtiter plates for 30 minutes and then stopped by addition of […] of an EDTA containing solution (100 mM Hepes pH 7.2, 0.015% Brij-35, 150 mM EDTA), resulting in a final EDTA concentration of 50 mM. After termination of the kinase reaction, the proportion of phosphorylated product was determined as a fraction of total peptide substrate using the Caliper LabChip 3000 according to the manufacturer's specifications. Ki values were then determined using the Morrison tight binding model.

NK92 cells = assay: IL-12-stimulated STAT4 phosphorylation in NK92 cells (TYK2-dependent signaling, MSD); format: cell-based; details: read-out: IL12-pSTAT4 NK92 EC50
Method: The activities of compounds were determined in cell-based assays that are designed to measure TYK2-dependent signaling. Compounds were serially diluted in DMSO and incubated with NK92 cells (American Type Culture Collection (ATCC); Manassas, Va.) in 96-well microtiter plates in RPMI medium at a final cell density of 100,000 cells per well and a final DMSO concentration of 0.57%. Human recombinant IL-12 (R&D systems; Minneapolis, Minn.) was then added at a final concentration of 10 ng/mL to the microtiter plates containing the NK92 cells and compound and the plates were incubated for 1 hr at 37° C. Compound-mediated effects on STAT4 phosphorylation were then measured in the lysates of incubated cells using the Meso Scale Discovery (MSD) technology (Gaithersburg, Md.) according to the manufacturer's protocol and EC50 values were determined

[1] = 0.5 h, TF-1 cells, IL-6 30 ng/mL, 30 min
[2] = NK92 cells, IL-12 10 ng/mL, 1 hr

Chain of human JAK2 kinase domain (O60674 812-1132): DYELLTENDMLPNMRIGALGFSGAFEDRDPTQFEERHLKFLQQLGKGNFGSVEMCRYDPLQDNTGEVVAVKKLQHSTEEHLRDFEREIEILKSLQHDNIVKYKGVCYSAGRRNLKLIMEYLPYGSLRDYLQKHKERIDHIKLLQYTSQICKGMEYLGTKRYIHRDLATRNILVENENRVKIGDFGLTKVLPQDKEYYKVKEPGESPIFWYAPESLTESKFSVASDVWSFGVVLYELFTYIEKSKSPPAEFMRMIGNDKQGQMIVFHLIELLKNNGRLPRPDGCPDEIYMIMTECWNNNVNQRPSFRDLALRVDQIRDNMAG

SMILES | EC50 (TF-1 cells; [1]) | Ki (human JAK2 kinase domain) | EC50 (NK92 cells; [2]) | EC50 (TF-1 cells; TF-1, 0.5 h) | EC50 (NK92 cells; NK92, 1 h)
Cc1cc(NC(=O)c2cnn3ccc(N)nc23)n(-c2ccccc2C)n1 [Example 343, 5-Amino-pyrazolo[1,5-a]-pyrimidine-3-carboxylic acid (5-methyl-2-o-tolyl-2H-pyrazol-3-yl)-amide] | 380 nM | 4.2 nM | 5300 nM | – | –
Cc1nc(-c2ccccc2C)c(NC(=O)c2cnn3ccc(N)nc23)s1 [Example 231, 5-amino-pyrazolo[1,5-a]pyrimidine-3-carboxylic acid (2-methyl-4-o-tolyl-thiazol-5-yl)-amide] | – | 1.8 nM | – | 371 nM | 3300 nM
O=C(N[C@H]1CC[C@H](O)CC1)c1cnn2ccc(NC3CCc4ccccc43)nc12 (stereo partly drawn) [Example 299, 5-(Indan-1-ylamino)-pyrazolo[1,5-a]pyrimidine-3-carboxylic acid (4-hydroxy-cyclohexyl)-amide] | 1880 nM | 0.8 nM | 1770 nM | – | –

Now from value to compound, other results behind:

EC50 (TF-1 cells; [1]) | Ki (human JAK2 kinase domain) | EC50 (NK92 cells; [2]) | SMILES | EC50 (TF-1 cells; TF-1, 0.5 h) | EC50 (NK92 cells; NK92, 1 h)
1600 nM | 3.2 nM | 579 nM | Cc1cc(NC(=O)c2cnn3ccc(Nc4cccc(C(F)(F)F)c4)nc23)on1 [Example 240, 5-(3-Trifluoromethyl-phenylamino)-pyrazolo-[1,5-a]pyrimidine-3-carboxylic acid (3-methyl-isoxazol-5-yl)-amide] | – | –
170 nM | 0.5 nM | 336 nM | Cc1cc(NC(=O)c2cnn3ccc(N)nc23)n(-c2cc(Cl)ccc2C)n1 [Example 226] | – | –
1400 nM | 1.6 nM | 1100 nM | O=C(NC1CCOCC1)c1cnn2ccc(NC3Cc4ccccc4C3)nc12 [Example 297, 5-(Indan-2-ylamino)-pyrazolo[1,5-a]pyrimidine-3-carboxylic acid (tetrahydro-pyran-4-yl)-amide] | – | –
514 nM | 0.9 nM | 603 nM | Nc1ccn2ncc(C(=O)Nc3ccnn3-c3cc(Cl)ccc3Cl)c2n1 [Example 277, 5-Amino-pyrazolo[1,5-a]-pyrimidine-3-carboxylic acid [2-(2,5-dichloro-phenyl)-2H-pyrazol-3-yl]-amide] | – | –
165 nM | 0.1 nM | 158 nM | Nc1ccn2ncc(C(=O)Nc3c[nH]nc3-c3cc(Cl)ccc3Cl)c2n1 [Example 248, 5-Amino-pyrazolo[1,5-a]-pyrimidine-3-carboxylic acid [3-(2,5-dichloro-phenyl)-1H-pyrazol-4-yl]-amide] | – | –
